Laboratory results from US12624039B2, “BTK inhibitors” (DIZAL (JIANGSU) PHARMACEUTICAL CO., LTD., priority 2020, dated 2026).
Where two headings read alike, the source gives them in different places.

Columns and labels:
[1] = Short oral absorption (SOA) assay in rats, brain penetration; assay type: in vivo; conditions: rat; for Kp: brain, AUCbrain/AUCplasma
Description: Short Oral Absorption (SOA) Assay in Rats.
(§1) A Short oral absorption (SOA) model is an in-vivo screening model to identify brain penetration of a compound. To evaluate the potential of a compound to cross the blood-brain barrier in rats, total brain-to-plasma ratio (Kp,brain) was measured AUCbrain/AUCplasma. CSF-to-plasma ratio (Kp,CSF) was determined by either AUCCSF/AUCplasma or the average of CSF-to-plasma ratios at available time points after oral administration, respectively. Free fractions of in biological matrix were determined by in vitro plasma and brain binding assay in a separate study. Kp,uu,brain and Kp,uu,CSF were calculated by the following equations: (1) Kp,uu,brain=Kp, brain×fu,brain/fu,plasma; (2) Kp,uu,CSF=Kp,CSF/fu,plasma.

[2] = In vitro plasma and brain binding assay (free fractions); assay type: in vitro ADME, rat
Description: as §1

[3] = Kp,CSF/fu,plasma, read-out: Kp, uu CSF
[4] = Kp,brain×fu,brain/fu,plasma, read-out: Kp, uu brain
[5] = rat brain free fraction, read-out: Rat fu, br (%)
[6] = rat plasma free fraction, read-out: Rat fu, pl (%)

Row | SMILES | Kp [1] | Kp uu [1, 3] | Kp uu [1, 4] | fraction unbound [2, 5] | fraction unbound [2, 6]
1 | Nc1nccn2c(C3CCC(CO)OC3)nc(-c3ccc(Oc4ccccc4)cc3F)c12 (single isomer, unassigned) [Compound 2, Trans-(5-(8-amino-1-(2-fluoro-4-phenoxyphenyl)imidazo[1,5-a]pyrazin-3-yl)tetrahydro-2H-pyran-2-yl)methanol] | 1.35 | 0.86 | 1.19 | 0.033 | 0.038
2 | Nc1ncnn2c(C3CCC(CO)OC3)nc(-c3ccc(Oc4cccc(F)c4F)cc3)c12 (stereo not drawn) [Compound 14, (5-(4-amino-5-(4-(2,3-difluorophenoxy)phenyl)imidazo[5,1-f][1,2,4]triazin-7-yl)tetrahydro-2H-pyran-2-yl)methanol] | 0.32 | 0.59 | 0.23 | 0.015 | 0.02
3 | Nc1ncnn2c(C3CCC(CO)OC3)nc(-c3ccc(Oc4ccccc4)cc3F)c12 (single isomer, unassigned) [Compound 10, Trans-(5-(4-amino-5-(2-fluoro-4-phenoxyphenyl)imidazo[5,1-f][1,2,4]triazin-7-yl)tetrahydro-2H-pyran-2-yl)methanol] | 0.38 | 0.56 | 0.23 | 0.022 | 0.037
